Assay: fluorescent zinc titration of ZPP1, fit to two-step binding model
Source text: Since ZPP1 contains two zinc-binding units, the following stepwise equilibria describe the binding events.
Two apparent binding constants, (K1app=1.52×10^11 M^−1, K2app=1.02×10^8 M^−1) were obtained by fitting the experimental data to the two-step model with high fidelity.

[1] = fluorescence titration, two-step model fit

O=C(O)c1ccccc1-c1c2cc(Cl)c(=O)c(CN(Cc3ccccn3)Cc3cnccn3)c-2oc2c(CN(Cc3ccccn3)Cc3cnccn3)c(O)c(Cl)cc12 [ZPP1]
apparent binding constant K1app (first step zinc binding) [1]: 1.52e+11 M⁻¹ | apparent binding constant K2app (second step zinc binding) [1]: 1.02e+08 M⁻¹ | zinc equivalents at which fluorescence intensity reaches its maximum (state B): ~2 equiv | fluorescence response on addition of up to 1 equiv of zinc (up to 1 equiv zinc (state A)): only a slight fluorescence increase

Reference: patent US8574914B2, “Methods for mobile zinc measurement” (The General Hospital Corporation, priority 2009, dated 2013)
